The values below come from ChEMBL document CHEMBL3886816, “Substituted 5-(3,5-dimethylisoxazol-4-yl)indoline-2-ones” (2016).

For assay [1], the target named is Bromodomain-containing protein 4 (Homo sapiens, UniProt O60885). Description: (§1) Time-Resolved Fluorescence Resonance Energy Transfer (TR-FRET) Assay: The assay was carried out in binding mixtures of the bromodomain protein, 0-10 μM compounds and tetra-acetylated histone peptide (SGRGAC.KGGAC.KGLGAC.KGGAAC.[…]-biotin) in buffer containing 25 mM HEPES pH 7.5, 100 mM NaCl, 0.1% BSA, 0.05% CHAPS, and detection reagents. […] Upon further incubation for 1 hr, the TR-FRET signals were recorded on a BMG PHERAstar FS instrument.

Assay [2] deals with Bromodomain testis-specific protein (Homo sapiens, UniProt Q58F21). The assay is described as §1.
Assay [3] addresses Bromodomain-containing protein 2 (Homo sapiens, UniProt P25440). Described as §1.
Assay [4] addresses Bromodomain-containing protein 3 (Homo sapiens, UniProt Q15059). The description is as §1.

Chain of Bromodomain-containing protein 2 (P25440 whole entry): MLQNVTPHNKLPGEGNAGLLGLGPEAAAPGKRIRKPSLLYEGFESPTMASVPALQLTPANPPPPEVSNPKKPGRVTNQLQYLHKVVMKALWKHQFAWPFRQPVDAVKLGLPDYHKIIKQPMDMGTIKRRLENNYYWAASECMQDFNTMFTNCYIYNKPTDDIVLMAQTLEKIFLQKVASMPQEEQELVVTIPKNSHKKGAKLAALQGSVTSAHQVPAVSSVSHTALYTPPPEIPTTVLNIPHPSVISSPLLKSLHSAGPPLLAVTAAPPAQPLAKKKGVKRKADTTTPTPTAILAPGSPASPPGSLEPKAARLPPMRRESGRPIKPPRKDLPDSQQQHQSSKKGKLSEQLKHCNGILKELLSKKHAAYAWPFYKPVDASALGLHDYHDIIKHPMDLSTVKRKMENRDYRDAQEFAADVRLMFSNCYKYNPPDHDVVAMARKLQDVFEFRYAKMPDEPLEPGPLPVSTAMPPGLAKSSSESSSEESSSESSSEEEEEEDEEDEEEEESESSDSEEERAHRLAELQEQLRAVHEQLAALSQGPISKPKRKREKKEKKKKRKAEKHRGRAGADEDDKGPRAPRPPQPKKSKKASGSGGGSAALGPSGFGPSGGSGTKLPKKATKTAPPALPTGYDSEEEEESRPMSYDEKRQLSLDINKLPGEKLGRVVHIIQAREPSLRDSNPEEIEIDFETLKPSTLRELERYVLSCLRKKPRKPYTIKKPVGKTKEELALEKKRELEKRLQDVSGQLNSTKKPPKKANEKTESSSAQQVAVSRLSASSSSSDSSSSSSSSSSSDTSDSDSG
Chain of Bromodomain-containing protein 3 (Q15059 whole entry): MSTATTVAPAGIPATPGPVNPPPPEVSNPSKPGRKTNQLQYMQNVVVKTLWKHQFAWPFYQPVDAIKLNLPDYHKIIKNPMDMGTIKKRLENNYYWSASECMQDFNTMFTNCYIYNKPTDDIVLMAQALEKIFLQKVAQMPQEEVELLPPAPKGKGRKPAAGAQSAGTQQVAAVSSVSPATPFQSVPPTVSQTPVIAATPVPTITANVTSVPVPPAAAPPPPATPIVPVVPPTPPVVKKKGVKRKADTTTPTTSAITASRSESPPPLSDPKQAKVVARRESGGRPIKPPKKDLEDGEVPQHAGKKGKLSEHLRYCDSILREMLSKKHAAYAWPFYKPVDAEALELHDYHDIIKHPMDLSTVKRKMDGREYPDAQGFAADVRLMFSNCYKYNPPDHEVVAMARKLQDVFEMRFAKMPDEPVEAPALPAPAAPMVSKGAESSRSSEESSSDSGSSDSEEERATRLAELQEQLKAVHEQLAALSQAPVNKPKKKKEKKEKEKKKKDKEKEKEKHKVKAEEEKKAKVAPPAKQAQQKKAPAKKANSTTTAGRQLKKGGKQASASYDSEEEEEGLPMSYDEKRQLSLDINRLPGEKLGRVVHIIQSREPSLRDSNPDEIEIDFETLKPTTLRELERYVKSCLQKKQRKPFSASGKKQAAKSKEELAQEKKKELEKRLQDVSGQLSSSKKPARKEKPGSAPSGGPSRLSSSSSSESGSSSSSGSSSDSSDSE

Turning to `Cc1noc(C)c1-c1ccc2c(c1)C(C1CCCC1)(N1CCN(C)CC1)C(=O)N2` (stereo not given), the concentration for half-maximal inhibition (IC50) in assay [1] worked out at 180 nM.

`C=CCCCC1(O)C(=O)Nc2ccc(-c3c(C)noc3C)cc21` (stereo not given): the 50% inhibitory concentration (IC50) in assay [1] was found to be 540 nM.

In the case of `Cc1noc(C)c1-c1ccc2c(c1)C(C1CCCCC1)(N1CCN(C)CC1)C(=O)N2` (stereo not given), in assay [1], the concentration for half-maximal inhibition (IC50) is 110 nM. For `Cc1noc(C)c1-c1ccc2c(c1)C(O)(C1CCCCCC1)C(=O)N2` (stereo not given), in assay [1], the IC50 was 98 nM.

Take `Cc1noc(C)c1-c1ccc2c(c1)C(N)(c1ccccc1)C(=O)N2` (single isomer, unassigned): the IC50 in assay [2] came out at 95 nM; in assay [3], 55 nM; in assay [4], 35 nM; in assay [1] it was 150 nM.

Take `C=CCCC1(O)C(=O)Nc2ccc(-c3c(C)noc3C)cc21` (stereo not given): the half-inhibitory concentration (IC50) in assay [1] came to 430 nM. Take `Cc1noc(C)c1-c1ccc2c(c1)C(OCCO)(C1CCCCC1)C(=O)N2` (stereo not given): the IC50 in assay [1] is 82 nM.
